# Results published in patent US10336684B2, “Phenyl-(aza)cycloalkyl carboxylic acid GPR120 modulators” (BRISTOL-MYERS SQUIBB COMPANY, priority 2014, dated 2019).
# Biological target: human GPR120 (Homo sapiens (Human), UniProt Q5NUL3)
# Experiment: GPR120 pERK AlphaScreen SureFire assay (human GPR120 pERK assay)
# Type: cell-based
# Details: CHOA12 or CHO-K1 cells stably transfected with short form of human GPR120, 100% = 50 μM linolenic acid
# Source text: GPR120 activity was monitored by measuring phosphorylation of ERK (pERK), since G protein receptors are known to activate the ERK signaling cascade either directly and/or through recruitment of arrestin that serves as a scaffold for downstream signaling events.
# GPR120 pERK AlphaScreen SureFire Assay
# The human and mouse GPR120-mediated intracellular phosphorylated ERK assays were established using CHOA12 cells stably transfected with the short form of human or mouse GPR120 receptor. Cells were cultured in growth medium consisting of F-12 media (Invitrogen Cat. #11765) with 5% Charcoal/Dextran FBS (Invitrogen Cat. #12676-029), 500 μg/mL GENETICIN® (Life Technologies Cat. #10131-027) and 250 μg/mL Zeocin (Invitrogen Cat. #R250-01). Cells were cryo preserved at a concentration of 2×10^7 cells/mL, in 90% Charcoal/Dextran FBS and 10% DMSO, and frozen in liquid nitrogen at a low passage number.
# For the pERK assay, 2×10^7 cells/mL cryopreserved human and mouse cells were thawed rapidly in a 37° C. water bath and added to a T-225 flask containing 50 mL growth medium. The flasks were placed in a tissue culture incubator overnight (37° C., 5% CO2). The next day, cells were harvested with trypsin (Gibco Cat. #25300-054), resuspended in serum-containing growth medium and counted using a Cellometer and volume adjusted to a concentration of 0.6×10^6 cells/mL. Cells were plated into 384-well clear bottom tissue culture plates (BD Cat. #353962) at 50 μL/well, for a density of 30,000 cells/well using a MULTIDROP® and incubated for 16-18 hours (overnight) at 37° C. with 5% CO2. The next day, cells were serum starved in 30 μL of F-12 media without any serum or antibiotics for 2 hours at 37° C.
# Test compounds were 3-fold, 11-point serially diluted in DMSO in a REMP assay plate (Matrix Cat. #4307) by Tecan and 5 μL was transferred into an ECHO source plate (Labcyte Cat. #LC-0200). Cells were then stimulated with 50 nL of compound dilutions using ECHO liquid handler for 7 minutes at 37° C. Compounds ranged from final assay concentrations of 33.33 μM to 0.56 nM.
# The media was then dumped and cells lysed with 20 μL of 1× Lysis buffer from the AlphaScreen SureFire Phospho-ERK 1/2 Kit (Perkin Elmer Cat. #6760617M). The lysis buffer was diluted 5-fold with water before use. The plate was agitated on a shaker for 10 minutes after which 2 μL was transferred into a 384-well white proxiplate (Perkin Elmer Cat. #6008289). The SureFire assay reagent mix was prepared by mixing 60 parts Reaction Buffer, 10 parts Activation Buffer, 1 part Donor Beads, 1 part Acceptor Beads (Perkin Elmer Cat. #TGRES10K). 3.5 μL/well of this reagent mix was manually added to the proxiplate with a multichannel pipettor. Plates were spun down at 1000 rpm for 2 minutes, followed by light-protected incubation at room temperature for 2 hours. The plates were read on the Alpha-technology compatible Envision multilabel plate reader using AlphaScreen protocol according to manufacturer's specifications. The agonist effect of compounds was expressed as 100×(average sample-average blank)/(average total−average blank) where sample is the luminescence activity in the presence of test compound, blank is equal to the luminescence activity in the presence of DMSO control and the total is signal induced by 50 μM linolenic acid as reference compound. Activation data for the test compound over a range of concentrations was plotted as percentage activation of the test compound (100%=maximum response). After correcting for background, EC50 values were determined. The EC50 is defined as the concentration of test compound which produces 50% of the maximal response and was quantified using the 4 parameter logistic equation to fit the data.
# The human and mouse GPR120-mediated intracellular phosphorylated ERK assays were also established using CHO-K1 cells stably transfected with the short form of human or mouse GPR120 receptor. […]
# human GPR120, sequence (Q5NUL3 whole entry): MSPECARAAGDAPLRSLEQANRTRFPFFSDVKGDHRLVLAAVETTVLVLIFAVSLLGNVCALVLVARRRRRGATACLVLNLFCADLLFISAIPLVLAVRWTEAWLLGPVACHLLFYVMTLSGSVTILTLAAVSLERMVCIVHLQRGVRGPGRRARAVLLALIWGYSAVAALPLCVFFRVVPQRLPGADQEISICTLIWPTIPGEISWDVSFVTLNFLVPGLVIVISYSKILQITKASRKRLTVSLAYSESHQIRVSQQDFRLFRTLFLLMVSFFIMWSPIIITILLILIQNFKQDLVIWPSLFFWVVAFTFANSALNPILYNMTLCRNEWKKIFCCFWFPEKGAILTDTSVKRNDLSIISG
row,EC50,Structure (SMILES)
1,600 nM,"O=C(O)[C@H]1C[C@@H]1COc1ccc(C2CCCC(Oc3ccccc3)C2)cc1 (mixture of isomers) [Example 11, (1S,2S)-2-((4-((+/−)-3-Phenoxycyclohexyl)phenoxy)methyl)cyclopropanecarboxylic acid]"
2,300 nM,Cc1ccc(O[C@H]2CCC[C@@H](c3ccc(CCOCC(=O)O)cc3)C2)cc1F (racemic) [Example 34]
3,1610 nM,Cc1ccc(O[C@H]2CCC[C@@H](c3ccc(CCOCC(=O)O)cc3)C2)cn1 (racemic) [Example 35]
4,310 nM,Cc1ccc(O[C@H]2CCC[C@@H](c3ccc(CCOCC(=O)O)cc3)C2)cc1 (racemic) [Example 36]
5,4240 nM,O=C(O)COCCc1ccc([C@@H]2CCC[C@H](Oc3ccc(F)cc3)C2)cc1 (racemic) [Example 37]
6,720 nM,O=C(O)COCCc1ccc([C@@H]2CCC[C@H](Oc3ccc(Cl)cc3)C2)cc1 (racemic) [Example 38]
7,3240 nM,N#Cc1ccc(O[C@H]2CCC[C@@H](c3ccc(CCOCC(=O)O)cc3)C2)cc1 (racemic) [Example 39]
8,3750 nM,O=C(O)[C@H]1C[C@@H]1CCc1ccc([C@@H]2CCC[C@@H](Oc3ccccc3)C2)cc1 (racemic) [Example 40]
9,1940 nM,O=C(O)[C@@H]1C[C@H]1CCc1ccc([C@@H]2CCC[C@@H](Oc3ccccc3)C2)cc1 (racemic) [Example 41]
10,> 32000 nM,O=C(O)[C@H]1C[C@@H]1COc1ccc([C@@H]2CCC[C@@H](Oc3ccccc3)C2)cc1 (racemic) [Example 42]
11,> 16000 nM,CC(C)O[C@H]1CCC[C@@H](c2ccc(OC[C@H]3C[C@@H]3C(=O)O)cc2)C1 (racemic) [Example 43]
12,480 nM,"O=C(O)CCCCc1ccc([C@@H]2CCC[C@H](Oc3ccccc3)C2)cc1 (single isomer, unassigned) [Example 1, 5-(4-((+/−)-3-Phenoxycyclohexyl)phenyl)pentanoic acid]"
13,2360 nM,"O=C(O)CCCCc1ccc([C@@H]2CCC[C@@H](Oc3ccccc3)C2)cc1 (single isomer, unassigned) [Example 2, 5-(4-((+/−)-3-Phenoxycyclohexyl)phenyl)pentanoic acid]"
14,1160 nM,"CC(C)O[C@H]1CCC[C@@H](c2ccc(CCCCC(=O)O)cc2)C1 (single isomer, unassigned) [Example 3, 5-(4-((+/−)-3-Isopropoxycyclohexyl)phenyl)pentanoic acid]"
15,320 nM,"O=C(O)COCCc1ccc([C@@H]2CCC[C@H](Oc3ccccc3)C2)cc1 (single isomer, unassigned) [Example 4, 2-(4-((+/−)-3-Phenoxycyclohexyl)phenethoxy)acetic acid]"
16,1030 nM,"O=C(O)COCCc1ccc([C@H]2CCC[C@@H](Oc3ccccc3)C2)cc1 (single isomer, unassigned) [Example 5]"
17,180 nM,"O=C(O)COCCc1ccc([C@@H]2CCC[C@H](Oc3ccccc3)C2)cc1 (single isomer, unassigned) [Example 6]"
18,920 nM,"O=C(O)[C@H]1C[C@@H]1CCc1ccc([C@@H]2CCC[C@H](Oc3ccccc3)C2)cc1 (single isomer, unassigned) [Example 7]"
19,1450 nM,"O=C(O)[C@H]1C[C@@H]1CCc1ccc([C@H]2CCCC(Oc3ccccc3)C2)cc1 (single isomer, unassigned) [Example 8]"
20,650 nM,"O=C(O)[C@H]1C[C@@H]1CCc1ccc([C@@H]2CCCC(Oc3ccccc3)C2)cc1 (single isomer, unassigned) [Example 9]"
21,530 nM,"O=C(O)[C@@H]1C[C@H]1CCc1ccc([C@@H]2CCC[C@H](Oc3ccccc3)C2)cc1 (single isomer, unassigned) [Example 10]"
22,310 nM,"O=C(O)CCCCc1ccc(C2CCCCC(Oc3ccccc3)C2)cc1 (single isomer, unassigned) [Example 12, 5-(4-(3-Phenoxycycloheptyl)phenyl)pentanoic acid]"

row,EC50,Structure (SMILES)
1,1030 nM,"O=C(O)CCCCc1ccc(C2CCCCC(Oc3ccccc3)C2)cc1 (single isomer, unassigned) [Example 13, 5-(4-(3-Phenoxycycloheptyl)phenyl)pentanoic acid]"
2,1990 nM,"O=C(O)COCCc1ccc(C2CCCCC(Oc3ccccc3)C2)cc1 (single isomer, unassigned) [Example 15, 2-(4-(3-Phenoxycycloheptyl)phenethoxy)acetic acid]"
3,750 nM,"O=C(O)COCCc1ccc(C2CCCCC(Oc3ccccc3)C2)cc1 (single isomer, unassigned) [Example 16, 2-(4-(3-Phenoxycycloheptyl)phenethoxy)acetic acid]"
4,270 nM,"O=C(O)COCCc1ccc(C2CCCCC(Oc3ccccc3)C2)cc1 (single isomer, unassigned) [Example 17, 2-(4-(3-Phenoxycycloheptyl)phenethoxy)acetic acid]"
5,4980 nM,"O=C(O)[C@@H]1C[C@@H]1COc1ccc(N2CCCC(Oc3ccccc3)C2)cc1 (single isomer, unassigned) [Example 28, (+/−)-2-((4-(3-Phenoxypiperidin-1-yl)phenoxy)methyl)cyclopropanecarboxylic acid]"
6,630 nM,"O=C(O)COCCc1ccc(C2CCCCC(Oc3ccccc3)C2)cc1 (stereo not shown) [Example 14, 2-(4-(3-Phenoxycycloheptyl)phenethoxy)acetic acid]"
7,1380 nM,"O=C(O)CCCCc1ccc(C2CCC(Oc3ccccc3)C2)cc1 (stereo not shown) [Example 18, 5-(4-(3-Phenoxycyclopentyl)phenyl)pentanoic acid]"
8,2130 nM,"O=C(O)COCCc1ccc(C2CCC(Oc3ccccc3)C2)cc1 (stereo not shown) [Example 19, 2-(4-(3-Phenoxycyclopentyl)phenethoxy)acetic acid]"
9,500 nM,"O=C(O)CCCCc1ccc(N2CCC[C@H](Oc3ccccc3)C2)cc1 [Example 23, (S)-5-(4-(3-Phenoxypiperidin-1-yl)phenyl)pentanoic acid]"
10,930 nM,"O=C(O)CCCCc1ccc(N2CCC[C@H](Oc3ccc(F)cc3)C2)cc1 [Example 24, (S)-5-(4-(3-(4-Fluorophenoxy)piperidin-1-yl)phenyl)pentanoic acid]"
11,540 nM,"O=C(O)CCCCc1c(F)cc(N2CCC[C@H](Oc3ccccc3)C2)cc1F [Example 25, (S)-5-(2,6-Difluoro-4-(3-phenoxypiperidin-1-yl)phenyl)pentanoic acid]"
12,570 nM,"O=C(O)CCCCc1ccc(N2CCC[C@H](Oc3ccccc3)C2)cc1F [Example 26, (S)-5-(2-Fluoro-4-(3-phenoxypiperidin-1-yl)phenyl)pentanoic acid]"
13,4130 nM,"O=C(O)COCCCc1ccc(N2CCCC(Oc3ccccc3)C2)cc1 (stereo not shown) [Example 27, 2-(3-(4-(3-Phenoxypiperidin-1-yl)phenyl)propoxy)acetic acid]"
14,530 nM,O=C(O)CCCCc1ccc(C2CCCCC(Oc3ccc(Cl)cc3)C2)cc1 (stereo not shown) [Example 44]
15,2020 nM,O=C(O)CCCCc1ccc(C2CCCCC(Oc3cccc(Cl)c3)C2)cc1 (stereo not shown) [Example 45]
16,3120 nM,O=C(O)CCCCc1ccc(C2CCCCC(Oc3ccccc3Cl)C2)cc1 (stereo not shown) [Example 46]
17,3770 nM,CC(C)OC1CCC(c2ccc(CCCCC(=O)O)cc2)C1 (stereo not shown) [Example 47]
18,3220 nM,O=C(O)[C@H]1C[C@@H]1CCc1ccc(N2CCC[C@@H](Oc3ccccc3)C2)cc1 [Example 48]
19,1310 nM,O=C(O)[C@H]1C[C@@H]1CCc1ccc(N2CCC[C@H](Oc3ccccc3)C2)cc1 [Example 49]
20,410 nM,O=C(O)[C@@H]1C[C@H]1CCc1ccc(N2CCC[C@@H](Oc3ccccc3)C2)cc1 [Example 50]
21,1900 nM,O=C(O)[C@@H]1C[C@H]1CCc1ccc(N2CCC[C@H](Oc3ccccc3)C2)cc1 [Example 51]
